Reference: ChEMBL document CHEMBL3639097, “2-aryl imidazo[1,2-a]pyridine-3-acetamide derivatives, preparation methods and uses thereof” (2015)

molecular target: Translocator protein (Rattus norvegicus, UniProt P16257); test: Competitive Binding Assay: Competitive Binding Test of Drug to the Receptor (Rat Heart TSPO) and Radioligand (3H-PK11195): (1) tubes were placed in reaction condition of 30 C.(2) all tubes were added with 20 ug of receptor protein in order;(3) the test tubes were added in order with 20 uL of drugs in certain concentrations;(4) the non-specific binding tubes were added with 20 uL of non-tagged ligand (PK11195), the final concentration of the non-tagged ligand was 0.1 mM, pre-reacted for 30 min;(5) all tubes were added in order with 25 uL 3H-PK11195, the final concentration of the labeled ligand was 1.5 nM;(6) Tris-HCl Buffer pH7.4 was used to complement the reaction volumes of all tubes to reach 200 uL;(7) the reaction was performed under 30 C. reaction condition for 1 h;(8) Then samples were applied to 49-type glass fibre filter, vacuum suction filtered, then washed with 2 ml ice-cold Tris-HCl buffer solution (50 mM Tris-HCl buffer solution, 1 mM EDTA, 5 mM MgCl2, 1 mM PMSF, 0.1% NaN3.

| Structure (SMILES) | IC50 | Ki |
| --- | --- | --- |
| CCN(Cc1ccccc1)C(=O)Cc1c(-c2ccc(Cl)cc2)nc2cc(C)ccn12 | 16.9 nM | 7.17 nM |
| CCN(Cc1ccccn1)C(=O)Cc1c(-c2ccc(Cl)c(Cl)c2)nc2cc(C)ccn12 | 21.9 nM | 9.34 nM |
| CCN(Cc1ccncc1)C(=O)Cc1c(-c2ccc(Cl)c(Cl)c2)nc2cc(C)ccn12 | 26 nM | 11.1 nM |
| COCCN(Cc1ccccn1)C(=O)Cc1c(-c2ccc(Cl)c(Cl)c2)nc2cc(C)ccn12 | 15.6 nM | 6.66 nM |
